# According to patent US20230081390A1, “INHIBITORS OF RAF KINASES” (Kinnate Biopharma Inc., priority 2019, published 2023):
# Target: human RAF1 (Homo sapiens, UniProt P04049)
# Experiment: Protein kinase assay (33P-ATP filter binding), human RAF1, 10-dose IC50
# Format: biochemical
# Settings: MEK1 (K97R) substrate 3 micromolar, ATP 10 micromolar, read-out: RAF-1 IC50
# Experimental: In brief, for each reaction, kinase and substrate were mixed in a buffer containing 20 mM HEPES (pH 7.5), 10 mM MgCl2, 1 mM EGTA, 0.02% Brij35, 0.02 mg/mL BSA, 0.1 mM Na3VO4, 2 mM DTT, and […]. All compounds were solubilized in DMSO. Compounds were then added to each reaction mixture via acoustic dispense using an ECHO 550 nanoliter dispenser. For human RAF1 testing, human MEK1 (K97R) was used as a substrate at a concentration of 3 micromolar, with a final ATP concentration of 10 micromolar. […] Reactions were carried out at room temperature for 2 hr and spotted onto P81 ion exchange cellulose chromatography paper (Reaction Biology). […] The percent remaining kinase activity relative to a vehicle-containing (DMSO) kinase reaction was calculated for each kinase/inhibitor pair. IC50 values were calculated using Prism 5 (GraphPad).
# Chain of human RAF1 (P04049 whole entry): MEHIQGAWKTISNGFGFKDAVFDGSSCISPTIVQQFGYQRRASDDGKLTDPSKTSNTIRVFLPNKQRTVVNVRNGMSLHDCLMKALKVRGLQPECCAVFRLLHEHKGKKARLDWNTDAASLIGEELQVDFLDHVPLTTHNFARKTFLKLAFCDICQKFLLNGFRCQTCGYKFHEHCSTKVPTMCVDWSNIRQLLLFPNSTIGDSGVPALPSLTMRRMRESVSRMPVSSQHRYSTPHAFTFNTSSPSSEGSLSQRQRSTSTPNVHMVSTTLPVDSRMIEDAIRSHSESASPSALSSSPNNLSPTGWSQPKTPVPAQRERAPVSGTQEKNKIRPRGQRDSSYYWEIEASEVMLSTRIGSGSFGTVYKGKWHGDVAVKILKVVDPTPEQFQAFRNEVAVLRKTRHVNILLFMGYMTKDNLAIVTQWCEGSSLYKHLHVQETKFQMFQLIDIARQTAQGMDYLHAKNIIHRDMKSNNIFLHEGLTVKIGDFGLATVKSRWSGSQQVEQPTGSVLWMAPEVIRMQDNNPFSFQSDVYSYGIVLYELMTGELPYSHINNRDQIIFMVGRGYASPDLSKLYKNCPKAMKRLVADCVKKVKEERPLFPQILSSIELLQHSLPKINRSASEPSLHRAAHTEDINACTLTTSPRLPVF
row,Compound,IC50 [nM]
1,"Cc1cc(F)c(NC(=O)N2C[C@H](CF)[C@@H](C(F)(F)F)C2)cc1-c1cc(OCCO)nc(N2CCOCC2)c1 (relative stereo) [Example 39, (trans)-N-[2-fluoro-5-[2-(2-hydroxyethoxy)-6-(morpholin-4-yl)pyridin-4-yl]-4-methylphenyl]-3-(fluoromethyl)-4-(trifluoromethyl) pyrrolidine-1-carboxamide]",< 10
2,"Cc1ccc(NC(=O)N2CC[C@@H](C(F)(F)F)C2)cc1-c1cnc(OCCO)c(N2CCOCC2)c1 (single isomer, unassigned) [Example 14]",< 10
3,"Cc1ccc(NC(=O)N2CC[C@H](C(F)(F)F)C2)cc1-c1cnc(OCCO)c(N2CCOCC2)c1 (single isomer, unassigned) [Example 15]",< 10
4,"Cc1ncc(NC(=O)N2CC[C@@H](C(F)(F)F)C2)cc1-c1cnc(OCCO)c(N2CCOCC2)c1 (single isomer, unassigned) [Example 16]",< 10
5,"Cc1ncc(NC(=O)N2CC[C@H](C(F)(F)F)C2)cc1-c1cnc(OCCO)c(N2CCOCC2)c1 (single isomer, unassigned) [Example 17]",< 10
6,"Cc1cc(F)c(NC(=O)N2CC[C@@H](C(F)(F)F)C2)cc1-c1cc(OCCO)nc(N2CCOC[C@H]2C)c1 (single isomer, unassigned) [Example 29]",< 10
7,"Cc1cc(F)c(NC(=O)N2CC[C@H](C(F)(F)F)C2)cc1-c1cc(OCCO)nc(N2CCOC[C@H]2C)c1 (single isomer, unassigned) [Example 30]",< 10
8,"Cc1cc(F)c(NC(=O)N2CC[C@@H](C(F)(F)F)C2)cc1-c1cnc(OC2CCOCC2)c(N2CCOCC2)c1 (single isomer, unassigned) [Example 31]",< 10
9,"Cc1cc(F)c(NC(=O)N2CC[C@H](C(F)(F)F)C2)cc1-c1cnc(OC2CCOCC2)c(N2CCOCC2)c1 (single isomer, unassigned) [Example 32]",< 10
10,"Cc1cc(F)c(NC(=O)N2CC[C@H](C(C)(F)F)C2)cc1-c1cc(OCCO)nc(N2CCOCC2)c1 (single isomer, unassigned) [Example 33]",< 10
11,"Cc1cc(F)c(NC(=O)N2CC[C@@H](C(C)(F)F)C2)cc1-c1cc(OCCO)nc(N2CCOCC2)c1 (single isomer, unassigned) [Example 34]",< 10
12,"Cc1cc(F)c(NC(=O)N2CC[C@H](C3CC3)C2)cc1-c1cc(OCCO)nc(N2CCOCC2)c1 (single isomer, unassigned) [Example 47]",< 10
13,"Cc1cc(F)c(NC(=O)N2CC[C@@H](C3CC3)C2)cc1-c1cc(OCCO)nc(N2CCOCC2)c1 (single isomer, unassigned) [Example 48]",< 10
14,"Cc1cc(F)c(NC(=O)N2C[C@@H]3C[C@]3(C(F)(F)F)C2)cc1-c1cc(OCCO)nc(N2CCOCC2)c1 (single isomer, unassigned) [Example 50]",< 10
15,"Cc1cc(F)c(NC(=O)N2C[C@H]3C[C@@]3(C(F)(F)F)C2)cc1-c1cc(OCCO)nc(N2CCOCC2)c1 (single isomer, unassigned) [Example 51]",< 10
16,"Cc1cc(F)c(NC(=O)N2CC(C)C(C(F)(F)F)C2)cc1-c1cc(OCCO)nc(N2CCOCC2)c1 (single isomer, unassigned) [Example 52, N-[2-fluoro-5-[2-(2-hydroxyethoxy)-6-(morpholin-4-yl)pyridin-4-yl]-4-methylphenyl]-3-methyl-4-(trifluoromethyl)pyrrolidine-1-carboxamide]",< 10
17,"Cc1cc(F)c(NC(=O)N2CC(C)C(C(F)(F)F)C2)cc1-c1cc(OCCO)nc(N2CCOCC2)c1 (single isomer, unassigned) [Example 53, N-[2-fluoro-5-[2-(2-hydroxyethoxy)-6-(morpholin-4-yl)pyridin-4-yl]-4-methylphenyl]-3-methyl-4-(trifluoromethyl)pyrrolidine-1-carboxamide]",< 10
18,"Cc1cc(F)c(NC(=O)N2CCO[C@@H](C(C)(F)F)C2)cc1-c1cc(OCCO)nc(N2CCOCC2)c1 (single isomer, unassigned) [Example 58]",< 10

row,Compound,IC50 [nM]
1,"Cc1cc(F)c(NC(=O)N2CCO[C@@H](C(C)(F)F)C2)cc1-c1cc(OCCO)nc(N2CCOCC2)c1 (single isomer, unassigned) [Example 59]",< 10
2,"Cc1cc(F)c(NC(=O)N2C[C@H](C(F)(F)F)C[C@@H]2C)cc1-c1cc(OCCO)nc(N2CCOCC2)c1 (single isomer, unassigned) [Example 60, (cis)-N-[2-fluoro-5-[2-(2-hydroxyethoxy)-6-(morpholin-4-yl)pyridin-4-yl]-4-methylphenyl]-2-methyl-4-(trifluoromethyl)pyrrolidine-1-carboxamide]",< 10
3,"Cc1cc(F)c(NC(=O)N2C[C@H](C(F)(F)F)C[C@@H]2C)cc1-c1cc(OCCO)nc(N2CCOCC2)c1 (single isomer, unassigned) [Example 61, (cis)-N-[2-fluoro-5-[2-(2-hydroxyethoxy)-6-(morpholin-4-yl)pyridin-4-yl]-4-methylphenyl]-2-methyl-4-(trifluoromethyl)pyrrolidine-1-carboxamide]",< 10
4,"Cc1cc(F)c(NC(=O)N2CC[C@]3(C2)CC3(F)F)cc1-c1cc(OCCO)nc(N2CCOCC2)c1 (single isomer, unassigned) [Example 62]",< 10
5,"Cc1cc(F)c(NC(=O)N2CC[C@@]3(C2)CC3(F)F)cc1-c1cc(OCCO)nc(N2CCOCC2)c1 (single isomer, unassigned) [Example 63]",< 10
6,"Cc1cc(F)c(NC(=O)N2CCC(C(F)(F)F)C2C)cc1-c1cc(OCCO)nc(N2CCOCC2)c1 (single isomer, unassigned) [Example 64, N-[2-fluoro-5-[2-(2-hydroxyethoxy)-6-(morpholin-4-yl)pyridin-4-yl]-4-methylphenyl]-2-methyl-3-(trifluoromethyl)pyrrolidine-1-carboxamide]",100 to 1000
7,"Cc1cc(F)c(NC(=O)N2CCC(C(F)(F)F)C2C)cc1-c1cc(OCCO)nc(N2CCOCC2)c1 (single isomer, unassigned) [Example 65, N-[2-fluoro-5-[2-(2-hydroxyethoxy)-6-(morpholin-4-yl)pyridin-4-yl]-4-methylphenyl]-2-methyl-3-(trifluoromethyl)pyrrolidine-1-carboxamide]",10 to 100
8,"Cc1cc(F)c(NC(=O)N2CCC(C(F)(F)F)C2C)cc1-c1cc(OCCO)nc(N2CCOCC2)c1 (single isomer, unassigned) [Example 66, N-[2-fluoro-5-[2-(2-hydroxyethoxy)-6-(morpholin-4-yl)pyridin-4-yl]-4-methylphenyl]-2-methyl-3-(trifluoromethyl)pyrrolidine-1-carboxamide]",< 10
9,"Cc1cc(F)c(NC(=O)N2CCC(C(F)(F)F)C2C)cc1-c1cc(OCCO)nc(N2CCOCC2)c1 (single isomer, unassigned) [Example 67, N-[2-fluoro-5-[2-(2-hydroxyethoxy)-6-(morpholin-4-yl)pyridin-4-yl]-4-methylphenyl]-2-methyl-3-(trifluoromethyl)pyrrolidine-1-carboxamide]",< 10
10,"Cc1cc(F)c(NC(=O)N2CCC3C2C3C(F)(F)F)cc1-c1cc(OCCO)nc(N2CCOCC2)c1 (single isomer, unassigned) [Example 68, N-[2-fluoro-5-[2-(2-hydroxyethoxy)-6-(morpholin-4-yl)pyridin-4-yl]-4-methylphenyl]-6-(trifluoromethyl)-2-azabicyclo[3.1.0]hexane-2-carboxamide]",< 10
11,"Cc1cc(F)c(NC(=O)N2CCC3C2C3C(F)(F)F)cc1-c1cc(OCCO)nc(N2CCOCC2)c1 (single isomer, unassigned) [Example 69, N-[2-fluoro-5-[2-(2-hydroxyethoxy)-6-(morpholin-4-yl)pyridin-4-yl]-4-methylphenyl]-6-(trifluoromethyl)-2-azabicyclo[3.1.0]hexane-2-carboxamide]",< 10
12,"Cc1cc(F)c(NC(=O)N2CCC3C2C3C(F)(F)F)cc1-c1cc(OCCO)nc(N2CCOCC2)c1 (single isomer, unassigned) [Example 70, N-[2-fluoro-5-[2-(2-hydroxyethoxy)-6-(morpholin-4-yl)pyridin-4-yl]-4-methylphenyl]-6-(trifluoromethyl)-2-azabicyclo[3.1.0]hexane-2-carboxamide]",10 to 100
13,"Cc1cc(F)c(NC(=O)N2CCC3C2C3C(F)(F)F)cc1-c1cc(OCCO)nc(N2CCOCC2)c1 (single isomer, unassigned) [Example 71, N-[2-fluoro-5-[2-(2-hydroxyethoxy)-6-(morpholin-4-yl)pyridin-4-yl]-4-methylphenyl]-6-(trifluoromethyl)-2-azabicyclo[3.1.0]hexane-2-carboxamide]",100 to 1000
14,"Cc1cc(F)c(NC(=O)N2CC[C@H](CC(F)(F)F)C2)cc1-c1cc(OCCO)nc(N2CCOCC2)c1 (single isomer, unassigned) [Example 74]",< 10
15,"Cc1cc(F)c(NC(=O)N2CC[C@@H](CC(F)(F)F)C2)cc1-c1cc(OCCO)nc(N2CCOCC2)c1 (single isomer, unassigned) [Example 75]",< 10
16,"Cc1cc(F)c(NC(=O)N2CC[C@@H](OC(F)(F)F)C2)cc1-c1cc(OCCO)nc(N2CCOCC2)c1 (single isomer, unassigned) [Example 77]",< 10
17,"Cc1cc(F)c(NC(=O)N2CC[C@H](OC(F)(F)F)C2)cc1-c1cc(OCCO)nc(N2CCOCC2)c1 (single isomer, unassigned) [Example 78]",< 10
